# Test results as given in US20070004736A1, “Imidazole derivative, process for producing the same, and use” (priority 2002, published 2007).
# Counter-ions that a name gives are not always drawn.
# Target: human FXa (Homo sapiens, UniProt P00742)
# Experiment: Human activated blood coagulation factor X (FXa) inhibitory activity
# Format: biochemical
# Settings: concentration at which 50% of FXa activity was inhibited; substrate S-2765, 37° C., absorbance at 405 nm
# Description: (1) Human Activated Blood Coagulation Factor X (FXa) Inhibitory Activity
# Experimental method: 225 μl of a 0.05 M Tris-HCl buffer (pH 8.3) containing 0.145 M sodium chloride and 2 mM calcium chloride, 5 μl of a sample (a test compound was dissolved in dimethyl sulfoxide) and 10 μl of human FXa (0.3 unit/ml) were added to a 96-well microplate and incubated at 37° C. for about 10 minutes. Then, 10 μl of a substrate (3 mM, S-2765) was added to the plate and incubated at 37° C. for 10 minutes. After stopping the reaction by adding 25 μl of a 50% aqueous acetic acid, a change in absorbance at 405 nm was measured with a spectrophotometer, and the concentration (IC50) at which 50% of FXa activity was inhibited was calculated.
# Chain of human FXa (P00742 235-488 limits assumed): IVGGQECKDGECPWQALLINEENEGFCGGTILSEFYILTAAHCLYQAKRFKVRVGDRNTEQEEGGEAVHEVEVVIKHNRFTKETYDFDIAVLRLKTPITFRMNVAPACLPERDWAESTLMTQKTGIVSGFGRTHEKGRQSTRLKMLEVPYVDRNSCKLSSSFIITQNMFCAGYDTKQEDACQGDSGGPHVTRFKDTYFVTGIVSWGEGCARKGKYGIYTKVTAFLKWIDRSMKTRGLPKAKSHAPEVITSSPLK
# Chain of human FXa (P00742 41-179 partner limits assumed): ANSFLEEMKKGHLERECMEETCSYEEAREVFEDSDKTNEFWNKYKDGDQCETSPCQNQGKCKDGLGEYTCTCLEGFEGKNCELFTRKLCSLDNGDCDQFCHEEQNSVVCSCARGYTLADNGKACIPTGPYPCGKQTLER
row,Structure (SMILES),IC50 [µM]
1,"Cc1nc(C)n2c1CN(C1CCN(C(=O)CCS(=O)(=O)c3ccc4cc(Cl)ccc4c3)CC1)C2=O [Example 72, 2-(1-{3-[(6-Chloro-2-naphthyl)sulfonyl]propanoyl}-4-piperidinyl)-5,7-dimethyl-1,2-dihydro-3H-imidazo[1,5-c]imidazol-3-one]",0.0072
2,"CCc1ncc2n1C(=O)N(C1CCN(C(=O)CCS(=O)(=O)c3ccc4cc(Cl)ccc4c3)CC1)C2 [Example 42, 2-(1-{3-[(6-Chloro-2-naphthyl)sulfonyl]propanoyl}-4-piperidinyl)-5-ethyl-1,2-dihydro-3H-imidazo[1,5-c]imidazol-3-one]",0.0071
3,"Cc1nccn1CCC1CCN(C(=O)CCS(=O)(=O)c2ccc3cc(Cl)ccc3c2)CC1 [Example 102, 1-{3-[(6-Chloro-2-naphthyl)sulfonyl]propanoyl}-4-[2-(2-methyl-1H-imdazol-1-yl)ethyl]piperidine hydrochloride]",0.043
4,"Cc1ncc(C2CCN(C(=O)CCS(=O)(=O)c3ccc4cc(Cl)ccc4c3)CC2)n1C [Example 24, 1-{3-[(6-Chloro-2-naphthyl)sulufonyl]propanoyl}-4-(1,2-dimethyl-1H-imidazol-5-yl)piperidine]",0.031
5,"Cc1nc(C)n(CCC2CCN(C(=O)CCS(=O)(=O)c3ccc4cc(Cl)ccc4c3)CC2)c1C [Example 109, 1-{3-[(6-Chloro-2-naphthyl)sulfonyl]propanoyl}-4-[2-(2,4,5-trimethyl-1H-imidazol-1-yl)ethyl]piperidine]",0.045

# More lines, now with the values ahead:
row,IC50 [µM],Structure (SMILES)
1,0.011,"Cc1ncn2c1C(=O)N(C1CCN(C(=O)CCS(=O)(=O)c3ccc4cc(Cl)ccc4c3)CC1)CC2 [Example 39, 7-(1-{3-[(6-Chloro-2-naphthyl)sulfonyl]propanoyl}-4-piperidinyl)-1-methyl-6,7-dihydoroimidazo[1,5-a]pyrazin-8(5H)-one]"
2,0.011,"Cc1ncc2n1CCN(C1CCN(C(=O)CCS(=O)(=O)c3ccc4cc(Cl)ccc4c3)CC1)C2=O [Example 38, 7-(1-{3-[(6-Chloro-2-naphthyl)sulfonyl]propanoyl}-4-piperidinyl)-3-methyl-6,7-dihydroimidazo[1,5-a]pyrazin-8(5H)-one]"
